≈ marks a conversion by molar mass, not a printed value. Starred links: 1 amine or outer side, 2 acyl side, 3 side chain; linkers in the order of their positions; H or OH if unused. Positions of bridges follow the written chain, without caps; N, C: chain ends. Non-standard residues stand in square brackets, D forms with d. Residues, ends and D or L forms follow the SMILES beside them. X1 = O=C([C@H](CCCCNCC=[*:3])N[*:1])[*:2]
Experiments:
Staphylococcus aureus [1] = assay: Antibacterial activity against methicillin-resistant Staphylococcus aureus assessed as inhibition of bacterial growth incubated for 16 hrs by broth microdilution method; format: functional
Staphylococcus aureus [2] = assay: Antibacterial activity against Staphylococcus aureus BNCC 186335 assessed as inhibition of bacterial growth incubated for 16 hrs by broth microdilution method; format: functional
Listeria monocytogenes = assay: Antibacterial activity against Listeria monocytogenes assessed as inhibition of bacterial growth incubated for 16 hrs by broth microdilution method; format: functional
Pseudomonas aeruginosa = assay: Antibacterial activity against Pseudomonas aeruginosa BNCC 125486 assessed as inhibition of bacterial growth incubated for 16 hrs by broth microdilution method; format: functional
Escherichia coli [3] = assay: Antibacterial activity against Escherichia coli BNCC 133264 assessed as inhibition of bacterial growth incubated for 16 hrs by broth microdilution method; format: functional
Erythrocyte = assay: Hemolytic activity against human RBC assessed as concentration required to cause 10% hemolysis; format: toxicity, cell-based
Escherichia coli [4] = assay: Antibacterial activity against cephalosporin-resistant Escherichia coli BNCC 133264 assessed as inhibition of bacterial growth incubated for 16 hrs by broth microdilution method; format: functional
HEK-293T = assay: Cytotoxicity against human HEK293T cells assessed as cell survival rate at 8 to 128 Ug/ml incubated for 24 hrs by MTT assay relative to control; format: toxicity, cell-based; details: dose 8-128 µg/ml

Row | Structure (SMILES) | MIC (Staphylococcus aureus [1]) [µg/mL] | MIC (Staphylococcus aureus [2]) [µg/mL] | MIC (Listeria monocytogenes) [µg/mL] | MIC (Pseudomonas aeruginosa) [µg/mL] | MIC (Escherichia coli [3]) [µg/mL] | MHC (Erythrocyte) [µg/mL] | MIC (Escherichia coli [4]) [µg/mL] | Activity (HEK-293T)
1 | CC[C@H](C)[C@H](NC(=O)[C@H](CCCCN)NC(=O)[C@H](CCCNC(=N)N)NC(=O)[C@@H](NC(=O)[C@H](CC(C)C)NC(=O)[C@H](CCCCN)NC(=O)[C@H](CC(C)C)NC(=O)[C@@H](NC(=O)[C@H](CCCCN)NC(=O)CNC(=O)[C@H](Cc1ccccc1)NC(=O)[C@@H](N)Cc1ccccc1)C(C)C)[C@@H](C)CC)C(=O)N[C@@H](Cc1ccccc1)C(N)=O (H-FFGKVLKLIRKIF-NH2) | 64 (≈ 39.8 µM) | 64 (≈ 39.8 µM) | 8 (≈ 4.97 µM) | > 128 | > 128 | 16 |  | 
2 | CC[C@H](C)[C@H](NC(=O)[C@@H]1CCCCNC/C=C/CNCCCC[C@H](NC(=O)[C@H](CC(C)C)NC(=O)[C@@H](NC(=O)[C@H](CCCCN)NC(=O)CNC(=O)[C@H](Cc2ccccc2)NC(=O)[C@@H](N)Cc2ccccc2)C(C)C)C(=O)N[C@@H](CC(C)C)C(=O)N[C@@H]([C@@H](C)CC)C(=O)N[C@@H](CCCNC(=N)N)C(=O)N1)C(=O)N[C@@H](Cc1ccccc1)C(N)=O (H-FFGKVL[X1]LIR[X1]IF-NH2; staple (E) 7-11) | 32 (≈ 19.3 µM) | 16 (≈ 9.64 µM) | 8 (≈ 4.82 µM) | > 128 | 128 (≈ 77.1 µM) | 16 | 128 (≈ 77.1 µM) | Toxic
3 | CC[C@H](C)[C@H](NC(=O)[C@H](CCCCN)NC(=O)[C@@H]1CCCN1C(=O)[C@@H](NC(=O)[C@H](CC(C)C)NC(=O)[C@H](CCCCN)NC(=O)[C@H](CC(C)C)NC(=O)[C@@H](NC(=O)[C@H](CO)NC(=O)CNC(=O)[C@H](Cc1ccccc1)NC(=O)[C@@H](N)Cc1ccccc1)C(C)C)[C@@H](C)CC)C(=O)N[C@@H](CC(C)C)C(N)=O (H-FFGSVLKLIPKIL-NH2) | 2 (≈ 1.36 µM) | 2 (≈ 1.36 µM) | 2 (≈ 1.36 µM) | > 128 | 64 (≈ 43.4 µM) | 64 | 32 (≈ 21.7 µM) | 
4 | CC[C@H](C)[C@H](NC(=O)[C@@H]1CCCCNC/C=C/CNCCCC[C@H](NC(=O)[C@H](CC(C)C)NC(=O)[C@@H](NC(=O)[C@H](CO)NC(=O)CNC(=O)[C@H](Cc2ccccc2)NC(=O)[C@@H](N)Cc2ccccc2)C(C)C)C(=O)N[C@@H](CC(C)C)C(=O)N[C@@H]([C@@H](C)CC)C(=O)N2CCC[C@H]2C(=O)N1)C(=O)N[C@@H](CC(C)C)C(N)=O (H-FFGSVL[X1]LIP[X1]IL-NH2; staple (E) 7-11) | 4 (≈ 2.62 µM) | 4 (≈ 2.62 µM) | 4 (≈ 2.62 µM) | > 128 | 64 (≈ 41.9 µM) | 32 | 128 (≈ 83.9 µM) | Toxic
5 | CC(C)C[C@@H]1NC(=O)[C@H](C)NC(=O)[C@@H](NC(=O)[C@H](C)NC(=O)[C@H](C)NC(=O)CNC(=O)[C@H](CCCCN)NC(=O)[C@H](CC(C)C)NC(=O)[C@H](CC(C)C)NC(=O)[C@H](CC(=O)O)NC(=O)[C@H](CCCCN)NC(=O)[C@H](Cc2ccccc2)NC(=O)CN)CCCCNC/C=C/CNCCCC[C@@H](C(=O)N[C@H](C(=O)N[C@H](C(=O)N[C@@H](CC(C)C)C(=O)N[C@@H](Cc2ccccc2)C(N)=O)C(C)C)[C@@H](C)O)NC(=O)[C@H](C(C)C)NC1=O (H-GFKDLLKGAA[X1]ALV[X1]TVLF-NH2; staple (E) 11-15) | 8 (≈ 3.86 µM) | 2 (≈ 0.966 µM) | 4 (≈ 1.93 µM) | 128 (≈ 61.8 µM) | 8 (≈ 3.86 µM) | 32 | 16 (≈ 7.73 µM) | Toxic
6 | CC(C)C[C@H](NC(=O)[C@H](C)NC(=O)[C@@H]1CCCCNC/C=C/CNCCCC[C@H](NC(=O)[C@H](CC(C)C)NC(=O)[C@H](CC(C)C)NC(=O)[C@H](CC(=O)O)NC(=O)[C@H](CCCCN)NC(=O)[C@H](Cc2ccccc2)NC(=O)CN)C(=O)NCC(=O)N[C@@H](C)C(=O)N[C@@H](C)C(=O)N1)C(=O)N[C@H](C(=O)N[C@@H](CCCCN)C(=O)N[C@H](C(=O)N[C@H](C(=O)N[C@@H](CC(C)C)C(=O)N[C@@H](Cc1ccccc1)C(N)=O)C(C)C)[C@@H](C)O)C(C)C (H-GFKDLL[X1]GAA[X1]ALVKTVLF-NH2; staple (E) 7-11) | 8 (≈ 3.86 µM) | 2 (≈ 0.966 µM) | 8 (≈ 3.86 µM) | 32 (≈ 15.5 µM) | 16 (≈ 7.73 µM) | 32 | 32 (≈ 15.5 µM) | 
7 | CC(C)C[C@H](NC(=O)[C@H](C)NC(=O)[C@H](CCCCN)NC(=O)[C@H](C)NC(=O)[C@H](C)NC(=O)CNC(=O)[C@@H]1CCCCNC/C=C/CNCCCC[C@H](NC(=O)[C@H](Cc2ccccc2)NC(=O)CN)C(=O)N[C@@H](CC(=O)O)C(=O)N[C@@H](CC(C)C)C(=O)N[C@@H](CC(C)C)C(=O)N1)C(=O)N[C@H](C(=O)N[C@@H](CCCCN)C(=O)N[C@H](C(=O)N[C@H](C(=O)N[C@@H](CC(C)C)C(=O)N[C@@H](Cc1ccccc1)C(N)=O)C(C)C)[C@@H](C)O)C(C)C (H-GF[X1]DLL[X1]GAAKALVKTVLF-NH2; staple (E) 3-7) | 16 (≈ 7.73 µM) | 4 (≈ 1.93 µM) | 16 (≈ 7.73 µM) | 128 (≈ 61.8 µM) | 16 (≈ 7.73 µM) | 32 | 32 (≈ 15.5 µM) | Toxic
8 | CC[C@H](C)[C@H](NC(=O)[C@H](CCCCN)NC(=O)[C@H](CC(N)=O)NC(=O)[C@H](CC(C)C)NC(=O)[C@@H](NC(=O)[C@H](CCCCN)NC(=O)[C@@H]1CCCN1)[C@@H](C)CC)C(=O)N[C@@H](CC(C)C)C(=O)NCC(=O)N[C@@H](CCCCN)C(=O)N[C@H](C(=O)N[C@@H](CC(C)C)C(=O)N[C@@H](CCCNC(=N)N)C(=O)N[C@@H](CC(C)C)C(=O)N[C@@H](C)C(=O)N[C@@H](C)C(=O)N[C@@H](C)C(=O)N[C@@H](Cc1ccccc1)C(=O)N[C@@H](CCCCN)C(N)=O)[C@@H](C)CC (H-PKILNKILGKILRLAAAFK-NH2) | 4 (≈ 1.9 µM) | 2 (≈ 0.949 µM) | 4 (≈ 1.9 µM) | 4 (≈ 1.9 µM) | 4 (≈ 1.9 µM) | 16 | 4 (≈ 1.9 µM) | 
9 | CC[C@H](C)[C@@H]1NC(=O)[C@@H](NC(=O)[C@H](CC(N)=O)NC(=O)[C@H](CC(C)C)NC(=O)[C@@H](NC(=O)[C@H](CCCCN)NC(=O)[C@@H]2CCCN2)[C@@H](C)CC)CCCCNC/C=C/CNCCCC[C@@H](C(=O)N[C@H](C(=O)N[C@@H](CC(C)C)C(=O)N[C@@H](CCCNC(=N)N)C(=O)N[C@@H](CC(C)C)C(=O)N[C@@H](C)C(=O)N[C@@H](C)C(=O)N[C@@H](C)C(=O)N[C@@H](Cc2ccccc2)C(=O)N[C@@H](CCCCN)C(N)=O)[C@@H](C)CC)NC(=O)CNC(=O)[C@H](CC(C)C)NC1=O (H-PKILN[X1]ILG[X1]ILRLAAAFK-NH2; staple (E) 6-10) | 4 (≈ 1.85 µM) | 2 (≈ 0.926 µM) | 2 (≈ 0.926 µM) | 16 (≈ 7.41 µM) | 4 (≈ 1.85 µM) | 16 | 8 (≈ 3.71 µM) | Non-Toxic
10 | CCN1CCN(C(=O)N[C@@H](C(=O)N[C@@H]2C(=O)N3C(C(=O)[O-])=C(CSc4nnnn4C)CS[C@H]23)c2ccc(O)cc2)C(=O)C1=O.[Na+] [CEFOPERAZONE SODIUM] | > 128 | 0.5 | 8 | 4 | 0.125 |  | > 128 | 
11 | CN[C@H](CC(C)C)C(=O)N[C@H]1C(=O)N[C@@H](CC(N)=O)C(=O)N[C@H]2C(=O)N[C@H]3C(=O)N[C@H](C(=O)N[C@H](C(=O)O)c4cc(O)cc(O)c4-c4cc3ccc4O)[C@H](O)c3ccc(c(Cl)c3)Oc3cc2cc(c3O[C@@H]2O[C@H](CO)[C@@H](O)[C@H](O)[C@H]2O[C@H]2C[C@](C)(N)[C@H](O)[C@H](C)O2)Oc2ccc(cc2Cl)[C@H]1O [VANCOMYCIN] |  |  |  | > 128 | > 128 |  | > 128 | 
